Assays:
[1] = test system: CYP24A1 in SK-MEL-28 cells; assay: CYP24A1 induction (RT-qPCR), extended dose–response in SK-MEL-28 cells
[2] = test system: VDRE in the mouse Spp1 gene, B16–F10 cells; assay: ChIP-qPCR at the Spp1 VDRE; assay type: cell-based
From the text: To test this, we performed ChIP assays in B16–F10 cells, analyzing ligand-induced VDR and CBP (Creb binding protein) coactivator recruitment to the well-characterized consensus vitamin D receptor element (VDRE) in the mouse Spp1 gene (Figure A), which is superinduced by AC-340 (Figures C and A). CBP was chosen because it is widely expressed, and previous studies have shown that it is recruited to Cyp24a1 VDREs. […] In contrast, AC-340 recruited almost 3-fold more CBP under the same conditions (Figure C). CBP is a component of a large coactivator assembly recruited by VDR and required for chromatin remodeling due to its H3K27 acetyltransferase activity. − Since we previously observed a substantially higher level of H3K27 acetylation in AC-340-treated B16–F10 cells (Figure C,D), we intend to assess H3K27 acetylation at the Spp1 VDRE.
Cells were then fixed by adding formaldehyde directly to the culture medium to a final concentration of 1% and incubated for 15 min at RT. To quench the fixation, glycine was added to the medium at a final concentration of 125 mM. […] Quantification of immunoprecipitated materials was performed by qPCR and the enrichment of the target gene VDRE in each condition was normalized to the percentage input.

[3] = test system: B16–F10 cells; assay: RNaseq gene expression profiling; assay type: cell-based, mouse; settings: 24 h
Description: AC-340 superinduced CYP24A1 expression in all cell lines tested, and ZG-126 appeared to be a hyperagonist in SK-MEL-28 cells. […] AC-340 treatment produced 3 times more differentially expressed genes (DEGs) than AM-193, with ZG-126 producing an intermediate number (Figure A). […] The varying effects of each treatment on the numbers of regulated genes and the fold changes observed are reflected in plots of log-fold changes and volcano plots (Figure S3B).
A quality control was performed before sequencing in paired-end at 50 M reads by Illumina NovaSeq 6000 S4 PE100. After sequencing, the FASTQ files were sent to us and all downstream analysis were performed on Galaxy (Galaxy (usegalaxy.org)). First, trimmomatic tool was used to remove the adapters from the reads. Then, using the alignment tool, HISAT2, the reads were mapped to the mouse genome. In the next step, the counted reads were annotated and finally the list of differentially expressed genes (DEGs) for each treatment was obtained using the preinstalled R package called Limma.

[4] = target: T1, HDAC 10 (Homo sapiens, UniProt Q969S8); assay: HDAC 10 inhibition (Reaction Biology, 10-dose IC50)
T1 sequence (Q969S8 1-669): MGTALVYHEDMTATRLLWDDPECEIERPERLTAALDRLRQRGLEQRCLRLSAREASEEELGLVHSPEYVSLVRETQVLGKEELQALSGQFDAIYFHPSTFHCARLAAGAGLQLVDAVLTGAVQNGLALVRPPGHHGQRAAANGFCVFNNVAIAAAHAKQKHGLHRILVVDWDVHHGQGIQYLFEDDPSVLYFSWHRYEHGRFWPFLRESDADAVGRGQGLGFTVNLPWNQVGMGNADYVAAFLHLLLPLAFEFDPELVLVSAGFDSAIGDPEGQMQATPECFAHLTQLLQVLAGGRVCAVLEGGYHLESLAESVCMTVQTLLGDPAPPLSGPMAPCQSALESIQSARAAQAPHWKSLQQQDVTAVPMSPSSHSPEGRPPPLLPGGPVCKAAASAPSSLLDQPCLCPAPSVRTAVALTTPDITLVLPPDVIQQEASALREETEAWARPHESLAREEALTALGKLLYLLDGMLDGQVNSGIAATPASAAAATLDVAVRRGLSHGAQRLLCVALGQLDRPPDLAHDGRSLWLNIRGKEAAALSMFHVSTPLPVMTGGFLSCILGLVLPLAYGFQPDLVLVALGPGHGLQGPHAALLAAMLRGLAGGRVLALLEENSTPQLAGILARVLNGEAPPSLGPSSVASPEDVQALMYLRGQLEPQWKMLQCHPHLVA

[5] = test system: VDR target genes in B16-F10 cells; assay: RT-qPCR of selected VDR target genes (RNaseq validation); assay type: cell-based, mouse; settings: B16-F10, 24 h, compared with other treatments
From the text: The enhanced response of B16–F10 cells to AC-340 likely reflects the VDR hyperagonist activity observed in Cyp24a1 induction assay (Figure A). […] In 49 of 50 cases, AC-340 superinduced their expression, often several fold (Figure C), consistent with AC-340 being a broad hyperagonist of 1,25D-induced genes.
RNAseq data validation by RT-qPCR of selected VDR target genes in B16-F10
Fig. S4. Validation of the RNAseq data by RT-qPCR.

[6] = test system: Cyp24a1 gene in B16–F10 melanoma cells; assay: Cyp24a1 gene induction (RT-qPCR) as test of VDR agonism; assay type: cell-based, mouse; settings: hybrids 10 μM, 1,25D and SAHA 100 nM, 24 h
[7] = test system: VDR; parameters: method as in earlier work; settings: efficacious and well-tolerated dose; ref (ref); cited from earlier work

Q: For `C=C1/C(=C\C=C2/CCC[C@]3(C)[C@@H]([C@H](C)CCCC(C)(C)O)CC[C@@H]23)C[C@@H](O)C[C@@H]1O` [1,25D, 1α,25-dihydroxyvitamin D], which “CYP24A1 induction on extending the dose range” value ([1]; SK-MEL-28 cells, 1,25D up to 1 mM) is on record?
A: failed to enhance the induction of CYP24A1

Q: What about the “H3K27 acetylation at the Spp1 VDRE” value [2] of the same molecule?
A: ineffective

Q: And the “logFC 4931406C07Rik” value ([3]; 100 nM)?
A: 0.647

Q: What about the “logFC Abcd2” value ([3]; 100 nM) of the same molecule?
A: 2.727

Q: And the “logFC Ace” value ([3]; 100 nM)?
A: 2.102

Q: What about the “logFC Adamts14” value ([3]; 100 nM) of the same molecule?
A: 1.691

Q: And the “logFC Adamtsl5” value ([3]; 100 nM)?
A: 0.7958

Q: And the “logFC Adssl1” value ([3]; 100 nM)?
A: 0.8651

Q: And the “logFC Aqp1” value ([3]; 100 nM)?
A: 3.095

Q: And the “logFC Ass1” value ([3]; 100 nM)?
A: 1.083

Q: And the “logFC Atoh8” value ([3]; 100 nM)?
A: 1.866

Q: What about the “logFC C3” value ([3]; 100 nM) of the same molecule?
A: 2.444

Q: What about the “logFC Cebpd” value ([3]; 100 nM) of the same molecule?
A: 0.9202

Q: What about the “logFC Cib2” value ([3]; 100 nM) of the same molecule?
A: 0.656

Q: What about the “logFC Crabp2” value ([3]; 100 nM) of the same molecule?
A: 1.516

Q: What about the “logFC Cyp24a1” value ([3]; 100 nM) of the same molecule?
A: 6.454

Q: And the “logFC Dagla” value ([3]; 100 nM)?
A: 0.6621

Q: And the “logFC Ddo” value ([3]; 100 nM)?
A: 1.132

Q: What about the “logFC Dhrs3” value ([3]; 100 nM) of the same molecule?
A: 1.185

Q: And the “logFC Dmpk” value ([3]; 100 nM)?
A: 1.6

Q: And the “logFC Efcab6” value ([3]; 100 nM)?
A: 1.404

Q: What about the “logFC Efhd1” value ([3]; 100 nM) of the same molecule?
A: 3.1104

Q: What about the “logFC Elfn1” value ([3]; 100 nM) of the same molecule?
A: 4.174

Q: And the “logFC Enpp1” value ([3]; 100 nM)?
A: 1.029

Q: And the “logFC Enpp3” value ([3]; 100 nM)?
A: 1.066

Q: And the “logFC Fam83f” value ([3]; 100 nM)?
A: 1.009

Q: And the “logFC Fam178b” value ([3]; 100 nM)?
A: 0.6417

Q: And the “logFC Gadd45a” value ([3]; 100 nM)?
A: 0.6305

Q: And the “logFC Gdpd5” value ([3]; 100 nM)?
A: 0.8468

Q: And the “logFC Gm5424” value ([3]; 100 nM)?
A: 1.087

Q: What about the “logFC Grb14” value ([3]; 100 nM) of the same molecule?
A: 4.512

Q: And the “logFC Hcn2” value ([3]; 100 nM)?
A: 2.951

Q: And the “logFC Hes6” value ([3]; 100 nM)?
A: 0.8133

Q: What about the “logFC Hoga1” value ([3]; 100 nM) of the same molecule?
A: 0.7079

Q: What about the “logFC Hoxb9” value ([3]; 100 nM) of the same molecule?
A: 0.9861

Q: And the “logFC Inmt” value ([3]; 100 nM)?
A: 4.174

Q: What about the “logFC Itgal” value ([3]; 100 nM) of the same molecule?
A: 2.511

Q: What about the “logFC Lgr6” value ([3]; 100 nM) of the same molecule?
A: 1.733

Q: And the “logFC Lrtm2” value ([3]; 100 nM)?
A: 3.553

Q: What about the “logFC Mal” value ([3]; 100 nM) of the same molecule?
A: 1.086

Q: What about the “logFC Matn2” value ([3]; 100 nM) of the same molecule?
A: 1.519

Q: And the “logFC Mmp28” value ([3]; 100 nM)?
A: 2.973

Q: And the “logFC Myl9” value ([3]; 100 nM)?
A: 1.815

Q: And the “logFC Neu3” value ([3]; 100 nM)?
A: 0.8227

Q: And the “logFC Nptx1” value ([3]; 100 nM)?
A: 1.67

Q: And the “logFC Obscn” value ([3]; 100 nM)?
A: 1.291

Q: What about the “logFC Pdlim2” value ([3]; 100 nM) of the same molecule?
A: 0.7794

Q: And the “logFC Prag1” value ([3]; 100 nM)?
A: 0.7325

Q: And the “logFC Prelp” value ([3]; 100 nM)?
A: 4.153

Q: And the “logFC Ptges” value ([3]; 100 nM)?
A: 2.985

Q: And the “logFC Rab7b” value ([3]; 100 nM)?
A: 1.864

Q: What about the “logFC Rac2” value ([3]; 100 nM) of the same molecule?
A: 2.0813

Q: And the “logFC Rom1” value ([3]; 100 nM)?
A: 0.7288

Q: What about the “logFC Rtn2” value ([3]; 100 nM) of the same molecule?
A: 0.9272

Q: What about the “logFC Scamp1” value ([3]; 100 nM) of the same molecule?
A: 0.6536

Q: And the “logFC Serpinb9b” value ([3]; 100 nM)?
A: 0.64

Q: And the “logFC Sh3bgr” value ([3]; 100 nM)?
A: 1.253

Q: What about the “logFC Shpk” value ([3]; 100 nM) of the same molecule?
A: 0.8108

Q: What about the “logFC Sox8” value ([3]; 100 nM) of the same molecule?
A: 3.592

Q: What about the “logFC Spp1” value ([3]; 100 nM) of the same molecule?
A: 3.391

Q: What about the “logFC Srcin1” value ([3]; 100 nM) of the same molecule?
A: 2.803

Q: What about the “logFC Tgm2” value ([3]; 100 nM) of the same molecule?
A: 2.227

Q: And the “logFC Tnni1” value ([3]; 100 nM)?
A: 6.667

Q: What about the “logFC Ttc39c” value ([3]; 100 nM) of the same molecule?
A: 1.046

Q: What about the “logFC Vdr” value ([3]; 100 nM) of the same molecule?
A: 3.982

Q: And the “logFC Wnt10a” value ([3]; 100 nM)?
A: 1.853

Q: Which IC50 [4] does the source give for `Cn1cc(CNCC2CCN(c3ncc(C(=O)NO)cn3)CC2)c2ccccc21` [Quisinostat] here?
A: 4.52 nM

Q: Which Prelp gene induction [5] does the source give for `CCC(CC)(c1ccc(C(=O)NCCCCC(=O)NO)cc1)c1ccc(OCC(O)C(C)(C)C)c(C)n1` (centres unmarked) [ZG-126] here?
A: most efficacious inducer

Q: What about the Tgm2 gene induction [5] of the same molecule?
A: most efficacious inducer

Q: And the “CYP24A1 induction (VDR hyperagonism)” value ([1]; SK-MEL-28 cells, 10 μM)?
A: displayed hyperagonism

Q: What about the “logFC Btn1a1” value ([3]; 10 μM) of the same molecule?
A: 8.367

Q: And the “logFC Cyp24a1” value ([3]; 10 μM)?
A: 8.537

Q: And the “logFC Elfn1” value ([3]; 10 μM)?
A: 7.8172

Q: And the “logFC Nccrp1” value ([3]; 10 μM)?
A: 7.976

Q: What about the “logFC Tnni1” value ([3]; 10 μM) of the same molecule?
A: 9.358

Q: What about the “Cyp24a1 gene expression induction” value [6] of the same molecule?
A: more efficacious than 1,25D (and AM-193)

Q: And the “VDR agonist activity in vivo” value [7]?
A: displays VDR agonist activity in vivo

Reference: article PMC12517324, “Hyperagonism of a Vitamin D Receptor Agonist/Histone Deacetylase Inhibitor Hybrid Molecule” (Journal of Medicinal Chemistry, 2025)
